Laboratory results as given in patent US12599597B2, “Substituted N-benzhydrylacetamide inhibitors of jumanji domain histone demethylases for the treatment of cancer” (University of Kentucky Research Foundation, priority 2020, dated 2026).

Target: T1, FBXL10 (KDM2B) (Homo sapiens, UniProt Q8NHM5)
T1 sequence (Q8NHM5 1-1336): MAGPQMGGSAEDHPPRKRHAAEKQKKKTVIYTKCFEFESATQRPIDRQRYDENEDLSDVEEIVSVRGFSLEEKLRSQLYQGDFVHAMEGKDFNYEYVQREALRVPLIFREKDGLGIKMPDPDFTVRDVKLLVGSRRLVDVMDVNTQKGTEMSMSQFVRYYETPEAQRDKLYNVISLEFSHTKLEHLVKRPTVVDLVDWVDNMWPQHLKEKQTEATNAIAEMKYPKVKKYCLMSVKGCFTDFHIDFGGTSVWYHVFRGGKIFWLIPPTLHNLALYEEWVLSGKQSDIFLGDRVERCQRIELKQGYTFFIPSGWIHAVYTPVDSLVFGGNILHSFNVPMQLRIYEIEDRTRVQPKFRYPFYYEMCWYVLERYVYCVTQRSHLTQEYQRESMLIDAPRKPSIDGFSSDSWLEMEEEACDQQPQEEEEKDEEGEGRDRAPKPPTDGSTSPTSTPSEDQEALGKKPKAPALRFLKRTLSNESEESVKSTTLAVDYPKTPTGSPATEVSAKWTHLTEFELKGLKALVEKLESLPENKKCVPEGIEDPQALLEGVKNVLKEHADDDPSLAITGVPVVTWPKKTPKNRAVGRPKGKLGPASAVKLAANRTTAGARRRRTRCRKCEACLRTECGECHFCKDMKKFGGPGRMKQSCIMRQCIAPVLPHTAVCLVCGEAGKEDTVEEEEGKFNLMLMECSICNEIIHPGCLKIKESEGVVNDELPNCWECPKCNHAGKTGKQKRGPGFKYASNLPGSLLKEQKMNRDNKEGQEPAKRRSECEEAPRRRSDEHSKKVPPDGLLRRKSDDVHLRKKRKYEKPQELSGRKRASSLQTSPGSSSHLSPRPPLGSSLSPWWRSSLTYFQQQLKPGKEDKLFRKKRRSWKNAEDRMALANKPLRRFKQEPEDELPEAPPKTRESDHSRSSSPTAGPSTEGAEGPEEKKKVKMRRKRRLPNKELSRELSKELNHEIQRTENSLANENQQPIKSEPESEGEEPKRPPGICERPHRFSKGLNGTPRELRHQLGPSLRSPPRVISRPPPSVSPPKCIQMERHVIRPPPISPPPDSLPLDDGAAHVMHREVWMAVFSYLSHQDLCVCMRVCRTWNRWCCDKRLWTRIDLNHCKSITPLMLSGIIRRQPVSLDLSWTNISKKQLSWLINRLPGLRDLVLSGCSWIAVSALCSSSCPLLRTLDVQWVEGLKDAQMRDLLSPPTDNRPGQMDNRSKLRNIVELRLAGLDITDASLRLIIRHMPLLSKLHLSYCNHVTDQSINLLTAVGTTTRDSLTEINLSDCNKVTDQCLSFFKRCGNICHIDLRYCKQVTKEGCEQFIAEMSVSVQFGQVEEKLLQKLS
Assay: Histone demethylase assay, purified enzyme panel
Assay type: biochemical
Conditions: 58B1, 10 μM
From the text: Histone Demethylase Assay
To further examine the effects of 58B1 on histone demethylase, we screened a panel of purified histone demethylases was screened.

With CCCC(=O)NC(c1ccc(N(CC)CC)cc1)c1cc(Cl)c2cccnc2c1O (stereo not shown) [58B1] the inhibition at 10 µM was 30%.
